The values below come from publication doi:10.1101/2025.03.03.641193, “Trihydroxybenzaldoximes are redox cycling inhibitors of ThDP-dependent DXP synthase” (bioRxiv, 2025).

The target of one series is T1, DrDXPS (Deinococcus radiodurans, UniProt Q9RUB5).
T1 construct: made in house
As to the kind of experiment: DXPS-IspC coupled assay, DrDXPS. Format: biochemical, Deinoccocus radiodurans. As to the method: (§1) Inhibitory activity of compounds against DXPS were monitored via a continuous spectrophotometric coupled assay with DXPS and IspC as previously described.[41],[42] Briefly, Reaction mixtures containing HEPES (100 mM, pH 8.0), MgCl2 (2 mM), NaCl (5 mM), ThDP (1 mM), BSA (1 mg/mL), DXPS (125–500 nM), IspC (1.7 μM), NADPH (160 μM), DMSO (5%, v/v), and inhibitor (0–200 μM) were preincubated at 25 °C (or chamber temperature 25–30 °C) for 5 min. Enzymatic reactions were initiated via the addition of 20 μL of a 10x substrate mix for a final well volume of 200 μL. Reactions were performed in triplicate unless otherwise noted. See the following sections for details and modifications.
(§2) When varying pyruvate (0–500 μM), GAP was maintained at 50 μM (3 mM for R478A). When varying GAP (0–500 μM), pyruvate was maintained at 500 μM. The following [DXPS] were used when varying 1: WT EcDXPS, R478A, H431A, D427A (200 nM), R99A (500 nM), WT DrDXPS, WT PaDXPS (150 nM). Analogs 3 and 4 were tested using WT EcDXPS (150 nM). Reactions were incubated and initiated as described above. Immediately following initiation, NADPH depletion was monitored at 340 nm at 25 °C for 7–10 min with a 14–20 second time interval. Initial velocities of DXP formation were determined from the linear portion of the NADPH decay. Initial velocities were arithmetically corrected for background for compound 4. Initial velocities were plotted vs. substrate concentration, and the data were fit to equation 1 (mixed model), 2 (competitive), or 3 (uncompetitive) based on the calculated α value and goodness of fit in GraphPad Prism. Reported standard errors of the mean for Kis are calculated from three replicates.

For a further series, the target named is T2, R478A DXPS (Escherichia coli, UniProt P77488, R478A).
T2 construct: made in house
Briefly: DXPS-IspC coupled assay, R478A variant. Format: biochemical, E. coli. As to the method: In this experiment, pyruvate was varied from 12.5–500 μM and D-GAP was maintained at 2x Km.. […] Thus, it appears that EcR478A is not absolutely critical for binding 1.
as §1, §2

The target in another series is T3, R99A DXPS (Escherichia coli, UniProt P77488, R99A).
T3 construct: made in house
As to the kind of experiment: DXPS-IspC coupled assay, R99A variant. Format: biochemical, E. coli. The protocol: (§3) To determine the role of active site network residues in the activity of oximes, inhibitory activity of 1 was assessed against EcD427A, EcH431A, and EcR99A by the DXPS-IspC coupled assay[41],[42] (Fig 4B, S3, Table S1). Ki determination was performed by varying [pyruvate] in order to assess the impact of residue substitutions on the uncompetitive mode of inhibition. […] (8.7 ± 1.2 μM, Fig S3, Table S1).
as §1, §2

A short description of series [1]: NMR detection of redox state of 1. Format: physicochemical. The protocol:
NMR experiments were performed as previously described[16],[24] with the following modifications. Experiments were performed aerobically unless otherwise noted. Anaerobic experiments were performed in the anaerobic chamber up to the point of transfer to NMR tubes which were capped with rubber septa to exclude oxygen once removed from the chamber. […] Solutions were also prepared aerobically in the presence of ascorbate (5 mM) and CAT (0.25 mg/mL). Oxime 1 (500 μM) was then added and solutions were incubated at 4 °C for 20 min. After incubation, 600 μL of each solution were transferred to labeled NMR tubes. 1D ^1H-NMR and 1D ^1H detected H{^13C} and H3{^13C} spectra via a proton multiplicity filter, which selects for ^13C nuclei attached to an odd number of protons, were acquired on a Bruker Avance 600 MHz or a Bruker Avance NEO 600 MHz spectrometer (HEPES anaerobic and Tris anaerobic) equipped with a TCI cryogenic probe equipped with z-gradients with a cryo-cooled ^13C preamplifier, resulting in high sensitivity for ^13C detection. Spectra were acquired at 600 MHz (^1H) and 150 MHz (^13C), at 25 °C utilizing a 90° ^1H excitation pulse (optimized for maximum signal-to-noise per unit time), 128 scans/FID (^1H-NMR), 200 ms acquisition time/FID, and a 3s relaxation day between successive scans, or 64 scans/FID (^1H detected H{^13C} and H3{^13C}), 200 ms acquisition time/FID, and a 5s relaxation day between successive scans.

Another series concerns the target T4, D427A DXPS (Escherichia coli, UniProt P77488, D427A).
T4 construct: made in house
Briefly: DXPS-IspC coupled assay, D427A variant. Format: biochemical, E. coli. The protocol:
as §3
Inhibitory activity of compounds against DXPS were monitored via a continuous spectrophotometric coupled assay with DXPS and IspC as previously described.[41],[42] […]
When varying pyruvate (0–500 μM), GAP was maintained at 50 μM (3 mM for R478A). […] Immediately following initiation, NADPH depletion was monitored at 340 nm at 25 °C for 7–10 min with a 14–20 second time interval. Initial velocities of DXP formation were determined from the linear portion of the NADPH decay. […] Initial velocities were plotted vs. substrate concentration, and the data were fit to equation 1 (mixed model), 2 (competitive), or 3 (uncompetitive) based on the calculated α value and goodness of fit in GraphPad Prism. Reported standard errors of the mean for Kis are calculated from three replicates.

Some results are limits rather than exact numbers.

For the compound `ON=Cc1cc(O)c(O)cc1O` [compound 1, 2,4,5-trihydroxybenzaldoxime], the Ki on DrDXPS was 2800 ± 200 nM; at R478A DXPS, 15.7 ± 0.4 µM; on R99A DXPS (Ki Vary Pyruvate, R99A, pyruvate 0–500 μM) it was 30 ± 1 µM; at R99A DXPS (Ki varying [D-GAP], R99A, GAP 0–500 μM, pyruvate 500 μM) it was 8.7 ± 1.2 µM; at D427A DXPS, 4.8 ± 0.2 µM. The “MOI varying D-GAP” value at DrDXPS (DrDXPS) and on R99A DXPS (EcR99A) was “competitive” each time. The MOI varying pyruvate result on DrDXPS (DrDXPS), at R478A DXPS (EcR478A), on R99A DXPS (EcR99A) and on D427A DXPS (EcD427A) was “uncompetitive” in each case. In addition, the “Ki relative to EcDXPS” value on DrDXPS (DrDXPS, varying either pyruvate or D-GAP) is recorded as at most 2 fold. In addition, the “Ki/Ki^wt” value is reported as ~ 3 at R478A DXPS (R478A, vary pyruvate, fold reduction in potency vs WT) and ~ 6 on R99A DXPS (R99A, vary pyruvate, fold reduction in potency vs WT). Further, the “fold reduction in potency relative to WT” value at R99A DXPS (R99A, varying [D-GAP]) came out at 4 fold. Moreover, the “redox state by 1H-NMR” value in series [1] (500 μM, HEPES 50 mM pH 8, aerobic) is on record as “partially”; in series [1] (500 μM, HEPES pH 8, aerobic, ascorbate 5 mM) it was “reduced”; in series [1] (500 μM, HEPES pH 8, aerobic, catalase 0.25 mg/mL), “mostly oxidized”; in series [1] (500 μM, Tris 50 mM pH 8, aerobic), “mostly”; in series [1] (500 μM, acidic pH (MES pH 6.2), aerobic), “mostly reduced”; in series [1] (500 μM, neutral and basic pH (phosphate pH 7, CHES pH 9), aerobic) it was “oxidized”. For the same compound, the “redox state by 1H-NMR” value is given as “primarily in the reduced state” in series [1] (12.5 mM, HEPES 100 mM pH 8, aerobic) and “primarily in its reduced form” in series [1] (anaerobic conditions).
